Laboratory results as given in patent publication US5925769A, “Acetylenic 1,5-diarylpyrazoles as antiinflammatory agents” (Ortho Pharmaceutical, Corp., priority 1998, dated 1999).

Tests used:
[1] = target: T1, Sheep seminal vesicle (SSV) cyclooxygenase (Ovis aries, UniProt P05979); test: Procedure I: inhibition of sheep seminal vesicle (SSV) cyclooxygenase; type: biochemical; conditions: SSV cyclooxygenase; for inhibition at 10 µM: 20 min, @ 10 .quadrature.M, read-out: Proc. I % inhibition; for IC50: read-out: Proc. I IC50
T1 construct: Sheep seminal vesicle (SSV) cyclooxygenase (95% pure); purchased Biomol (Plymouth Meeting, PA); host or cells: sheep seminal vesicle
T1 sequence (P05979 25-600): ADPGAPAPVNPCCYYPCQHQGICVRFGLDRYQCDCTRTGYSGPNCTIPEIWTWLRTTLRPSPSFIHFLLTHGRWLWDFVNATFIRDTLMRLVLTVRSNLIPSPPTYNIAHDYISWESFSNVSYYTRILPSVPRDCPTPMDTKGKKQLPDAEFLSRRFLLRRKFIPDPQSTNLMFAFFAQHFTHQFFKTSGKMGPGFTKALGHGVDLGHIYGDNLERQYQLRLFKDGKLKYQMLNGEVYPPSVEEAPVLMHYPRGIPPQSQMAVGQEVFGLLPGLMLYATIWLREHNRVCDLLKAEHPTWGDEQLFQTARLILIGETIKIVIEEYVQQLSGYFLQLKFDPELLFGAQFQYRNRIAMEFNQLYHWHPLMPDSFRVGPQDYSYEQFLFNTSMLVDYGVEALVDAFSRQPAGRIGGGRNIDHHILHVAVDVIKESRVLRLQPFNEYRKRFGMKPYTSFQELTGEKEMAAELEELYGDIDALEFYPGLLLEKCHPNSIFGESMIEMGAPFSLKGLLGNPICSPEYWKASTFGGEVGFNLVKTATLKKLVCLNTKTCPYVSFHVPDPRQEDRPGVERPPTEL
Description: Procedure I was used to determine the ability of the compounds to inhibit cyclooxygenase. […] The enzyme was divided into 200 μL aliquots, snap frozen with liquid N2, and stored at -70° C. until immediately prior to use. […] The tubes were mixed on a vortex shaker, preincubated for 5 min at 37° C. prior to the initiation of the reaction. The reaction was started by the addition of [^14 C]-arachidonic acid (1-^14 C-AA, Amersham, Arlington Heights, Ill.) in 10 μL of methanol. Tubes were again vortexed and incubated in a water bath for 20 minutes after which the tubes were removed and the reaction stopped by acidification with the addition of 1 mL 2M formic acid. Lipophilic products were extracted with 3 mL chloroform and concentrated to dryness under N2. Each pellet was reconstituted with 40 μL of chloroform and spotted on a Whatman Silicon thin-layer chromatography plate and developed in a chromatography tank containing A-9 solvent (11:5:2:1 V:V:VV, ethyl acetate:trimethyl-pentane:acetic acid:double distilled-H2 O). Radioactive cyclooxygenase products (prostaglandin D2, prostaglandin E2, etc.) were measured using a Bioscan System 200 Imaging Scanner. Inhibition of enzyme activity was calculated by comparing the areas under the curve produced in the presence or absence of test compound.

[2] = target: T2, CO (Rattus norvegicus, UniProt Q63921); test: Procedure II: CO activity in broken RBL-1 cells (homogenate supernatant); type: biochemical; conditions: RBL-1 broken cell supernatant; for inhibition at 10 µM: 20 min, @ 10 .quadrature.M, read-out: Proc. II CO % inhibition; for IC50: read-out: Proc. II CO IC50
T2 construct: the supernatant was saved as the source of enzymes; endogenous in cells; host or cells: RBL-1 (rat basophilic leukemia) cells
T2 sequence (Q63921 27-602): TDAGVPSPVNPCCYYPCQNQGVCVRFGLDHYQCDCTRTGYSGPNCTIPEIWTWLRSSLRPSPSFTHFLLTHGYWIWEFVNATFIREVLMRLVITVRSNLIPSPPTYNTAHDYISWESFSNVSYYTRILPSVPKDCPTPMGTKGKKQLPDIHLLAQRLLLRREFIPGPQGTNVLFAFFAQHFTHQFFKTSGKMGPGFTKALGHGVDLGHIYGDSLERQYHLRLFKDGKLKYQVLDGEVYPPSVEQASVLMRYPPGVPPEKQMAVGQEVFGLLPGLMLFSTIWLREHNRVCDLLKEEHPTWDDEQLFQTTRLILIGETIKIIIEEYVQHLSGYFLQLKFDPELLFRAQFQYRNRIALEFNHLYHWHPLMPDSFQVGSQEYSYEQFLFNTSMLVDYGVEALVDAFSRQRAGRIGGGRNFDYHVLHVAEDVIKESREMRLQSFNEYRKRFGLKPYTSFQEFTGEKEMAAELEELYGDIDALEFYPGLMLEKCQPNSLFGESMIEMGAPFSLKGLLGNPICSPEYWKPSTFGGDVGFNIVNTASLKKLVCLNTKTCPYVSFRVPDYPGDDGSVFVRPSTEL
Description: (§1) Procedure II was used to assess LO and CO activity. Rat basophilic leukemia cells (RBL-1; 5×10^7 viable cells/mL) were disrupted by homogenization on ice (four 20 sec bursts) with a Brinkman polytron. […] The homogenate was then centrifuged at 9,220×g for 48 minutes at 4° C. The pellet was discarded and the supernatant was saved as the source of enzymes. The supernatant was pre-incubated for five minutes at 37° C. in the presence of 2 mM of CaCl2 and compound or vehicle (1% DMSO). The conversion of AA into products by CO and LO was initiated by adding 10 μL (50 μCi) of 1-^14 C-AA to each tube and incubated at 37° C. for 20 minutes. The reaction was stopped by adjusting the pH of each sample to 3 to 3.5 with 2M formic acid. Samples were extracted with three volumes of chloroform to isolate the products of 5-LO formed during the reaction. Fractions were dried under nitrogen, then resuspended in 40 μL of chloroform and spotted onto silica gel HL plates. The plates were developed in A-9 solvent. The dried plates were analyzed using a Bioscan Imaging TLC scanner to determine the percentage of radiolabelled AA converted to 5-HETE (LO product) in each sample. The percentage of inhibition was calculated by:
(§2) [1-(5-HETE test)]/5-HETE control×100=% inhibition
(§3) The IC50 was determined using a curve fit in Cricket Graph (Computer Associated), which provided the equation of the regressed line used in the calculation.

[3] = target: T3, 5-LO (Rattus norvegicus, UniProt P12527); test: Procedure II: 5-LO activity (5-HETE) in broken RBL-1 cells (homogenate supernatant); type: biochemical; conditions: RBL-1 broken cell supernatant; for inhibition at 10 µM: 20 min, @ 10 .quadrature.M, read-out: Proc. II 5-LO % inhibition; for IC50: read-out: Proc. II 5-LO IC50
T3 construct: the supernatant was saved as the source of enzymes; endogenous in cells; host or cells: RBL-1 (rat basophilic leukemia) cells
T3 sequence (P12527 1-673): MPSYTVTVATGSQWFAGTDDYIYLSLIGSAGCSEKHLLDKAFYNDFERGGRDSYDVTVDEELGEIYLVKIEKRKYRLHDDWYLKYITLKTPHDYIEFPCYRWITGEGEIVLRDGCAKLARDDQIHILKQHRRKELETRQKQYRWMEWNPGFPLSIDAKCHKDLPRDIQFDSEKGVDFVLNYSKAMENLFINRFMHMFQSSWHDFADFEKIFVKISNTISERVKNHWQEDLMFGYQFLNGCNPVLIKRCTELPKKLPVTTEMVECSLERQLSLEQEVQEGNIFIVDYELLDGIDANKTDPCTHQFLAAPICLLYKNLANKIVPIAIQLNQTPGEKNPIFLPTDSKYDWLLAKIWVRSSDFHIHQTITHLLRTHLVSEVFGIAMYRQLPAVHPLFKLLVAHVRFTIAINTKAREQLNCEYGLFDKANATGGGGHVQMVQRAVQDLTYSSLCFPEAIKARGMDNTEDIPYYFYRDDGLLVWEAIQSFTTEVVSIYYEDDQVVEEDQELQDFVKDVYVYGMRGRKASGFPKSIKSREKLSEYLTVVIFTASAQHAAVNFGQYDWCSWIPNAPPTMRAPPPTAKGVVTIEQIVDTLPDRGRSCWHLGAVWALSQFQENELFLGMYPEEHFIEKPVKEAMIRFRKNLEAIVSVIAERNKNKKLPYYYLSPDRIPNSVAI
Description: as §1, §2, §3

[4] = target: T2, CO; test: Procedure III: CO (PgD2) in intact RBL-1 cells; type: cell-based; conditions: calcium ionophore A 23187, read-out: Proc. III CO IC50
Description: as §3
(§4) In Procedure III, the ability to inhibit 5-LO and CO in intact RBL-1 cells was also evaluated. […] Cells were collected by centrifugation, washed once in HBSS, and resuspended at a concentration of 1×10^5 cells/mL. Cells were incubated in the presence of vehicle or drug then centrifuged at 800×g for 10 minutes at 4° C. The supernatant was removed by aspiration and the cells were resuspended in 0.5 mL of HBSS. […] The conversion of AA to 5-LO products was initiated by the addition of 10 μL (50 μCi) of 1-^14 C-AA. Products were isolated by acidification and extraction, followed by thin layer chromatography analysis as described above. Radioactive areas corresponding to authentic 5-LO (5-HETE) and CO (PgD2) products were quantitated by the Bioscan 2000 Imaging System and the IC50 was calculated as above.

[5] = target: T3, 5-LO; test: Procedure III: 5-LO (5-HETE) in intact RBL-1 cells; type: cell-based; conditions: calcium ionophore A 23187, read-out: Proc. III 5-LO IC50
Description: as §3, §4

Row | SMILES | inhibition at 10 µM [1] | inhibition at 10 µM [2] | inhibition at 10 µM [3] | IC50 [4] | IC50 [5] | IC50 [2] | IC50 [3] | IC50 [1]
1 | COc1ccc(-n2nc(C#CC(C)N(O)C(N)=O)cc2-c2ccc(C)cc2)cc1 (centres unmarked) [Cpd 2, N-hydroxy-N-(1-(1-(4-methoxyphenyl)-5-(4-methylphenyl)pyrazol-3-yl)-1-butyn-3-yl)urea] | 10% | – | – | 1400 nM | 7700 nM | 9400 nM | 370 nM | –
2 | CCc1ccc(-c2cc(C#CC(C)N(O)C(=O)C(C)C)nn2-c2ccc(OC)cc2)cc1 (centres unmarked) [Cpd 30, N-isobutyryl-N-(1-(5-(4-ethylphenyl)-1-(4-methoxyphenyl)pyrazol-3-yl)-1-butyn-3-yl)hydroxylamine] | – | 73% | 93% | 180 nM | 13100 nM | – | – | 590 nM
3 | COc1ccc(-n2nc(C#CC(C)N(O)C(=O)C(C)C)cc2-c2ccc(C)cc2)cc1 (centres unmarked) [Cpd 20, N-isobutyryl-N-(1-(1-(4-methoxyphenyl) -5(4-methylphenyl)pyrazol-3-yl)-1-butyn-3-yl)hydroxylamine] | – | – | – | 90 nM | 5600 nM | 40 nM | 100 nM | 390 nM
4 | COC(=O)N(O)C(C)C#Cc1cc(-c2ccc(Cl)cc2)n(-c2ccc(OC)cc2)n1 (centres unmarked) [Cpd 41, N-methoxycarbony-N-(1-(5-(4-chlorophenyl)-1-(4-methoxyphenyl)pyrazol-3-yl)-1-butyn-3-yl)hydroxylamine] | – | 84% | 77% | 290 nM | 8700 nM | – | – | 1620 nM

Further compounds by falling IC50 [4], results first:

Row | inhibition at 10 µM [1] | inhibition at 10 µM [2] | inhibition at 10 µM [3] | IC50 [4] | IC50 [5] | IC50 [2] | IC50 [3] | IC50 [1] | SMILES
5 | 38% | 0% | 90% | 14500 nM | 3900 nM | – | – | – | COc1ccc(-n2nc(C#CC(C(C)C)N(O)C(N)=O)cc2-c2ccc(Cl)cc2)cc1 (centres unmarked) [Cpd 12]
6 | 17% | 66% | 89% | 5500 nM | 26600 nM | – | – | – | COc1ccc(-n2nc(C#CCN(O)C(=O)c3ccncc3)cc2-c2ccc(C)cc2)cc1 [Cpd 16]
7 | 74% | 100% | 100% | 280 nM | 8800 nM | – | – | – | COC(=O)N(O)CC#Cc1cc(-c2ccc(C)cc2)n(-c2ccc(OC)cc2)n1 [Cpd 17, N-methoxycarbonyl-N-(1-(1-(4-methoxyphenyl)-5-(4-methylphenyl)pyrazol-3-yl)-1-propyn-3-yl)hydroxylamine]
8 | – | – | – | 110 nM | 13100 nM | 10 nM | 80 nM | 310 nM | COc1ccc(-n2nc(C#CC(C)N(O)C(C)=O)cc2-c2ccc(C)cc2)cc1 (centres unmarked) [Cpd 18, N-Acetyl-N-(1-(1-(4-methoxyphenyl)-5-(4-methylphenyl)pyrazol-3-yl)-1-butyn-3-yl)hydroxylamine]
9 | 79% | 100% | 100% | 60 nM | 3000 nM | – | – | – | CCC(=O)N(O)CC#Cc1cc(-c2ccc(C)cc2)n(-c2ccc(OC)cc2)n1 [Cpd 14]
10 | 74% | 100% | 100% | 30 nM | 7200 nM | – | – | – | COc1ccc(-n2nc(C#CCN(O)C(C)=O)cc2-c2ccc(C)cc2)cc1 [Cpd 13, N-acetyl-N-(1-(1-(4-methoxyphenyl)-5-(4-methylphenyl)pyrazol-3-yl)-1-propyn-3-yl)hydroxylamine]
